Measurements reported in patent US20210330611A1, “THERAPY FOR NEUROLOGICAL DISEASES/DISORDERS” (priority 2020, published 2021).
pIC50: −log10 of the molar value. Structures can show the parent of a compound that is named as a salt. Where two headings read alike, the source gives them in different places.

What was measured:
[1] = in vitro; conditions: rat, Cell Toxicity IC50 (uM) [cFib assay]
[2] = test system: fibrin- and LPS-induced microglia activation; experiment: cells; format: cell-based, rat; conditions: for inhibition at 10 µM: Rattus norvegicus
[3] = test system: LPS-induced microglia activation; experiment: Image-based assay of LPS-induced microglia activation (HTS and dose response); format: cell-based, rat; conditions: Rattus norvegicus, Microglia; for inhibition at 10 µM: primary microglia HTS, LPS stimulation, read-out: LPS % inhibition; for IC50: read-out: LPS IC50 (uM) (Suppl. Table 7)
[4] = test system: primary rat microglia; experiment: Cell toxicity (dead cells, size <150 μm2) in LPS assay; conditions: for LPS % cell toxicity: primary microglia HTS, LPS stimulation
[5] = in vitro; conditions: rat
[6] = test system: primary rat microglia; experiment: Cell toxicity (dead cells, size <150 μm2) in coated fibrin (cFib) assay; conditions: primary microglia HTS, fibrin stimulation;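 as to Fibrin % cell toxicity: share of dead cells sized under 150 µm2 at 10 µM in fibrin-stimulated microglia HTS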
[7] = test system: fibrin-induced microglia activation; experiment: Image-based assay of fibrin-induced microglia activation (HTS and dose response); format: cell-based, rat; conditions: for pIC50 / IC50 / inhibition at 10 µM: Rattus norvegicus, Microglia; for IC50: read-out: Fibrin IC50 (uM) (Suppl. Table 7); for inhibition at 10 µM: primary microglia HTS, fibrin stimulation, read-out: Fibrin % inhibition
[8] = HTS of 1907 compounds, quadrant by fibrin and LPS inhibition
[9] = Microglia, HTS hit classification, read-out: Hit
[10] = hit classification in microglia HTS, read-out: Cherry-picked Hit (Suppl. Table 7)
[11] = quadrant by fibrin and LPS inhibition in HTS of 1907 compounds
[12] = 48 h, Table 1, dose response 0.001-20 μM, triplicates, primary rat microglia, 48 h, read-out: LPS IC50
[13] = 48 h, increased cell size (>800 μm^2) as marker of activation
[14] = LPS-induced microglia activation, dose response
[15] = dose response, LPS-induced microglia activation, read-out: LPS IC50
[16] = decreased size (<150 μm^2) as marker of toxicity
[17] = 48 h, Table 1, dose response 0.001-20 μM, triplicates, primary rat microglia, 48 h, read-out: Fibrin IC50
[18] = dose response, fibrin-induced microglia activation, read-out: Fibrin IC50
[19] = fibrin-induced microglia activation, dose response
[20] = increased cell size (>800 μm^2) as marker of activation

SMILES	IC50 ([1]; cFib assay)	Quadrant (FIG. 5b) [2, 8]	inhibition at 10 µM [2, 9]	inhibition at 10 µM [2, 10]	Quadrant (FIG. 5b) ([2]; Table 1, screen at 10 μM)	Quadrant (FIG. 5b) [2, 11]	pIC50 [3, 12]	inhibition at 10 µM [3, 13]	IC50 [3, 14]	pIC50 [3, 15]	LPS % cell toxicity [4, 16]	pIC50 [5]	Fibrin % cell toxicity [6, 16]	pIC50 [7, 17]	pIC50 [7, 18]	IC50 [7, 19]	inhibition at 10 µM [7, 20]	further results
CCCCC(=O)O[C@]1(C(=O)CO)[C@@H](C)C[C@H]2[C@@H]3CCC4=CC(=O)C=C[C@]4(C)[C@@]3(F)[C@@H](O)C[C@@]21C [Betamethasone valerate, reference compound]	> 20 µM	Q2	> 50%	> 50%	Q2	Q2	< 4.70	55%	> 20 µM	< 4.70	1%	< 4.70	1%	4.70	4.70	20 µM	69%	
Cc1cccc(C)c1N=C1NCCCS1 [Xylazine hydrochloride, reference compound]	> 20 µM	Q2	> 50%		Q2	Q2	5.10	72%	8 µM	5.10	2%	< 4.70	1%	5.70	5.70	2 µM	102%	IC50 ([1]; Table 3): > 20 µM; inhibition at 10 µM ([2]; Microglia, Table 3, read-out: Cherry-picked Hit (Suppl. Table 7)): > 50%; Quadrant (FIG. 5b) ([2]; Table 3, screen at 10 μM): Q2; IC50 ([3]; Table 3): 8 µM; IC50 ([4]; read-out: Cell Toxicity IC50 (uM) [LPS assay], LPS assay): > 20 µM; Fibrin Selectivity [7]: 5; Fibrin Selectivity (LOG10) [7]: 0.72; IC50 ([7]; Table 3): 2 µM
CC(C)C(=O)c1c(C(C)C)nn2ccccc12 [Ibudilast, reference compound]	> 20 µM	Q2	> 50%	> 50%	Q2	Q2	< 4.70	57%	> 20 µM	< 4.70	1%	< 4.70	1%	< 4.70	< 4.70	> 20 µM	75%	
COc1c(C)c2c(c(O)c1C/C=C(\C)CCC(=O)OCCN1CCOCC1)C(=O)OC2 [Mycophenolate mofetil, reference compound]	> 20 µM	Q2	> 50%	> 50%	Q2	Q2	6.00	79%	1 µM	6.00	2%	< 4.70	2%	5.70	5.70	2 µM	94%	
CC1(C)O[C@@H]2C[C@H]3[C@@H]4C[C@H](F)C5=CC(=O)C=C[C@]5(C)[C@@]4(F)[C@@H](O)C[C@]3(C)[C@]2(C(=O)CO)O1 [Fluocinolone acetonide, reference compound]	> 20 µM	Q2	> 50%	> 50%	Q2		> 9.00	104%	< 0.001 µM	> 9.00	4%	< 4.70	2%	> 9.00	> 9.00	< 0.001 µM	105%	Quadrant (FIG. 5b) ([2]; Table 2, screen at 10 μM): Q2; Activity ([2]; Table 7, fib = fibrin, LPS, tox = toxicity): fib/LPS; inhibition at 10 µM ([3]; 48 h, activation = cell size >800 μm2): 10%; pIC50 ([3]; Table 7, read-out: LPS_IC50): 8.70; LPS % cell toxicity ([4]; toxicity = cell size <150 μm2): 0%; Fibrin % cell toxicity ([6]; toxicity = cell size <150 μm2): 1%; pIC50 ([7]; Table 7, read-out: fib_IC50): 8.70; inhibition at 10 µM ([7]; activation = cell size >800 μm2): -35%
